How the values were obtained:
[1] = test system: rat; details: Subchronic inhalation toxicity, other, Whole-Body, dose end: 13 week, group: systemic
[2] = test system: rat; details: Subchronic oral toxicity in rodents, fischer, Gavage/Intubation, dose end: 17 week, group: systemic
[3] = test system: rat; details: Subchronic oral toxicity in rodents, sprague dawley, Gavage/Intubation, dose end: 90 day, group: systemic
[4] = test system: mouse; details: Subchronic oral toxicity in rodents, b6c3f1, Gavage/Intubation, dose end: 17 week, group: systemic
[5] = test system: mouse; details: Combined chronic toxicity/carcinogenicity; b6c3f1; Oral; Gavage/Intubation; dose end: 104 week; group: systemic; systemic / pathology microscopic / stomach / hyperkeratosis + systemic / pathology microscopic / stomach / hyperplasia + systemic / …
[6] = test system: rat; details: Combined chronic toxicity/carcinogenicity; fischer; Oral; Gavage/Intubation; dose end: 104 week; group: systemic; systemic / pathology microscopic / stomach / hyperplasia + systemic / pathology microscopic / clitoral gland / hyperplasia + systemic / …
[7] = test system: rat; details: Subchronic oral toxicity in rodents, sprague dawley, Water, dose end: 90 day, group: systemic
[8] = test system: mouse; details: Multigenerational reproductive toxicity study, cd1, Oral, Gavage/Intubation, dose end: 2 generation
[9] = test system: mouse; details: Combined chronic toxicity/carcinogenicity, b6c3f1, Oral, Gavage/Intubation, dose end: 104 week, group: systemic
[10] = test system: rat; details: Multigenerational reproductive toxicity study, other, Inhalation, Whole-Body, dose end: 1 generation
[11] = test system: rat; details: Combined chronic toxicity/carcinogenicity, fischer, Oral, Gavage/Intubation, dose end: 104 week, group: systemic
[12] = test system: rat; details: Subchronic inhalation toxicity, other, Whole-Body, dose end: 13 week, group: systemic; remark: listed apart in the source
[13] = test system: rat; details: Sub-acute repeat dose toxicity, other, Inhalation, Whole-Body, dose end: 4 week, group: systemic
[14] = test system: rat; details: Sub-acute repeat dose toxicity, sprague dawley, Oral, Gavage/Intubation, dose end: 10 day, group: systemic
[15] = test system: rat; details: Prenatal developmental toxicity study; wistar; Oral; Gavage/Intubation; dose end: 21 GD; group: developmental; systemic / in life observation / body weight / fetal weight + developmental / developmental landmark / anogenital distance (agd) / …
[16] = test system: rat; details: Developmental neurotoxicity study; long evans; Injection; Intraperitoneal; dose end: 18 PND; group: cannot be grouped; systemic / pathology gross / brain / reduced size + systemic / pathology microscopic / brain / depletion cellular
[17] = test system: rat; details: Developmental neurotoxicity study; long evans; Injection; Intraperitoneal; dose end: 21 PND; group: cannot be grouped; systemic / in life observation / body weight / offspring (pup) weight
[18] = test system: rat; details: Developmental neurotoxicity study, long evans, Injection, Intraperitoneal, dose end: 66 PND, group: cannot be grouped
[19] = test system: rat; details: Developmental neurotoxicity study, long evans, Injection, Intraperitoneal, dose end: 122 PND, group: cannot be grouped
[20] = test system: rat; details: Subchronic oral toxicity in rodents, fischer, Gavage/Intubation, dose end: 13 week, group: systemic
[21] = test system: mouse; details: Subchronic oral toxicity in rodents, b6c3f1, Gavage/Intubation, dose end: 13 week, group: systemic
[22] = test system: mouse; details: Sub-acute repeat dose toxicity, b6c3f1, Oral, Gavage/Intubation, dose end: 14 day, group: systemic
[23] = systemic / hematology / leukocyte (wbc) count differential / leukocyte (wbc) + systemic / in life observation / body weight / body weight + …
[24] = systemic / pathology microscopic / lung / hyperplasia + systemic / pathology microscopic / spleen / hematopoietic cell proliferation + …
[25] = systemic / clinical chemistry / [other] / [other] + systemic / hematology / erythrocyte (rbc) count differential / erythrocyte (rbc) + …
[26] = systemic / pathology microscopic / heart / inflammation + systemic / pathology microscopic / heart / necrosis
[27] = systemic / pathology microscopic / heart / inflammation + systemic / pathology microscopic / heart / necrosis + systemic / clinical …
[28] = systemic / pathology microscopic / lung / regeneration + systemic / pathology microscopic / stomach / acanthosis + systemic / pathology …
[29] = systemic / clinical chemistry / aminopyrine-n-demethylase / aminopyrine-n-demethylase + systemic / clinical chemistry / cholesterol / …
[30] = group: offspring, systemic / in life observation / body weight / offspring (pup) weight + systemic / in life observation / water consumption / water …
[31] = group: offspring, systemic / organ weight / kidney / relative to body weight + systemic / organ weight / liver / relative to body weight
[32] = group: parental, systemic / in life observation / body weight / body weight + systemic / in life observation / water consumption / water consumption + …
[33] = group: reproductive, reproductive / reproductive performance / estrous cycle / length
[34] = group: reproductive, reproductive / reproductive performance / fertility / fertility + reproductive / reproductive performance / gestational length / gestational…
[35] = systemic / pathology microscopic / harderian gland / adenoma + systemic / pathology microscopic / liver / hepatocellular adenoma + systemic…
[36] = systemic / pathology microscopic / stomach / squamous cell carcinoma + systemic / pathology microscopic / stomach / squamous cell papilloma…
[37] = group: parental, systemic / in life observation / body weight / body weight + systemic / in life observation / body weight / body weight gain
[38] = group: reproductive, reproductive / reproductive performance / mating / mating
[39] = systemic / pathology microscopic / clitoral gland / adenoma + systemic / pathology microscopic / clitoral gland / adenoma/carcinoma combined…
[40] = systemic / pathology microscopic / stomach / squamous cell papilloma + systemic / pathology microscopic / pancreas / hyperplasia + systemic…
[41] = systemic / hematology / platelet / platelet + systemic / in life observation / clinical signs / lacrimation
[42] = systemic / in life observation / clinical signs / lacrimation
[43] = systemic / in life observation / body weight / body weight + systemic / in life observation / body weight / body weight gain + systemic / in…
[44] = systemic / in life observation / body weight / body weight gain + systemic / organ weight / liver / absolute + systemic / organ weight / …
[45] = systemic / clinical chemistry / urea nitrogen / urea nitrogen + systemic / organ weight / kidney / relative to body weight
[46] = systemic / clinical chemistry / urea nitrogen / urea nitrogen + systemic / organ weight / kidney / relative to body weight + systemic / …
[47] = systemic / clinical chemistry / [other] / [other] + systemic / clinical chemistry / protein / protein + systemic / in life observation / …
[48] = systemic / clinical chemistry / [other] / [other] + systemic / clinical chemistry / protein / protein + systemic / organ weight / brain / …
[49] = systemic / in life observation / body weight / offspring (pup) weight + systemic / in life observation / clinical signs / [other] + systemic…
[50] = systemic / organ weight / brain / nos
[51] = systemic / pathology microscopic / stomach / hyperplasia
[52] = systemic / pathology microscopic / stomach / hyperplasia + systemic / organ weight / stomach / absolute + systemic / organ weight / stomach…
[53] = systemic / organ weight / stomach / nos + systemic / pathology microscopic / stomach / hyperplasia + systemic / pathology microscopic / …

ClCC(Cl)CCl [1,2,3-Trichloropropane]
LOAEL [1, 23]: > 50 ppm
NOAEL [1, 23]: ≥ 50 ppm
LEL [1, 24]: 5 ppm
NEL [1, 24]: < 5 ppm
LEL [2, 25]: 8 mg/kg/day
NEL [2, 25]: < 8 mg/kg/day
NOAEL ([2]; systemic / pathology microscopic / kidney / regeneration + systemic / clinical chemistry / [other] / [other] + systemic / clinical chemistry…): 32 mg/kg/day
LOAEL ([2]; systemic / pathology microscopic / kidney / regeneration + systemic / organ weight / kidney / absolute + systemic / in life observation / …): 63 mg/kg/day
LEL [3, 26]: 0.00147 mg/kg/day
NEL [3, 26]: < 0.00147 mg/kg/day
LOAEL [3, 27]: > 0.059 mg/kg/day
NOAEL [3, 27]: ≥ 0.059 mg/kg/day
LEL ([4]; systemic / organ weight / liver / absolute): 32 mg/kg/day
NEL ([4]; systemic / organ weight / liver / absolute + systemic / in life observation / body weight / body weight gain + systemic / in life …): 16 mg/kg/day
LOAEL [4, 28]: 63 mg/kg/day
NOAEL [4, 28]: 32 mg/kg/day
LEL [5]: 6 mg/kg/day
LOAEL [5]: 6 mg/kg/day
NEL [5]: < 6 mg/kg/day
NOAEL [5]: < 6 mg/kg/day
LEL [6]: 3 mg/kg/day
LOAEL [6]: 3 mg/kg/day
NEL [6]: < 3 mg/kg/day
NOAEL [6]: < 3 mg/kg/day
LOAEL [7, 29]: > 50 mg/kg/day
NEL [7, 29]: 0.5 mg/kg/day
NOAEL [7, 29]: ≥ 50 mg/kg/day
LEL ([7]; systemic / in life observation / water consumption / water consumption + systemic / organ weight / kidney / relative to body weight + …): 5 mg/kg/day
LOAEL [8, 30]: > 120 mg/kg/day
NOAEL [8, 30]: ≥ 120 mg/kg/day
LEL [8, 31]: 30 mg/kg/day
NEL [8, 31]: < 30 mg/kg/day
LEL [8, 32]: 120 mg/kg/day
LOAEL [8, 32]: > 120 mg/kg/day
NEL [8, 32]: 60 mg/kg/day
NOAEL [8, 32]: ≥ 120 mg/kg/day
LEL [8, 33]: 30 mg/kg/day
NEL [8, 33]: < 30 mg/kg/day
LOAEL [8, 34]: > 120 mg/kg/day
NOAEL [8, 34]: ≥ 120 mg/kg/day
LOAEL [9, 35]: > 60 mg/kg/day
NOAEL [9, 35]: ≥ 60 mg/kg/day
LEL [9, 36]: 6 mg/kg/day
NEL [9, 36]: < 6 mg/kg/day
LEL [10, 37]: 15 ppm
LOAEL [10, 37]: > 15 ppm
NEL [10, 37]: 5 ppm
NOAEL [10, 37]: ≥ 15 ppm
LEL [10, 38]: 5 ppm
LOAEL [10, 38]: > 15 ppm
NEL [10, 38]: < 5 ppm
NOAEL [10, 38]: ≥ 15 ppm
LOAEL [11, 39]: > 30 mg/kg/day
NOAEL [11, 39]: ≥ 30 mg/kg/day
LEL [11, 40]: 3 mg/kg/day
NEL [11, 40]: < 3 mg/kg/day
LOAEL [12, 41]: > 1.5 ppm
NOAEL [12, 41]: ≥ 1.5 ppm
LEL [12, 42]: 0.5 ppm
NEL [12, 42]: < 0.5 ppm
LOAEL [13, 43]: > 900 ppm
NOAEL [13, 43]: ≥ 900 ppm
LEL [13, 44]: 100 ppm
NEL [13, 44]: < 100 ppm
LEL [14, 45]: 0.00147 mg/kg/day
NEL [14, 45]: < 0.00147 mg/kg/day
LOAEL [14, 46]: > 0.118 mg/kg/day
NOAEL [14, 46]: ≥ 0.118 mg/kg/day

CC(C)COC(=O)c1ccccc1C(=O)OCC(C)C [Diisobutyl phthalate]
LEL [15]: 600 mg/kg/day
LOAEL [15]: > 600 mg/kg/day
NEL [15]: < 600 mg/kg/day
NOAEL [15]: ≥ 600 mg/kg/day

[CH3][Sn+]([CH3])[CH3].[OH-] [Trimethyltin hydroxide]
LEL [16]: 6 mg/kg/day
LOAEL [16]: > 6 mg/kg/day
NEL [16]: < 6 mg/kg/day
NOAEL [16]: ≥ 6 mg/kg/day
LEL [17]: 6 mg/kg/day
LOAEL [17]: > 6 mg/kg/day
NEL [17]: 5 mg/kg/day
NOAEL [17]: ≥ 6 mg/kg/day
LOAEL [18, 47]: > 6 mg/kg/day
NOAEL [18, 47]: ≥ 6 mg/kg/day
LEL [18, 48]: 5 mg/kg/day
NEL [18, 48]: < 5 mg/kg/day
LOAEL [19, 49]: > 6 mg/kg/day
NOAEL [19, 49]: ≥ 6 mg/kg/day
LEL [19, 50]: 4 mg/kg/day
NEL [19, 50]: < 4 mg/kg/day

CC(C)(C)OOC(=O)c1ccccc1 [tert-Butyl perbenzoate]
LEL [20, 51]: 30 mg/kg/day
NEL [20, 51]: < 30 mg/kg/day
LOAEL ([20]; systemic / pathology microscopic / stomach / hyperplasia + systemic / pathology microscopic / stomach / inflammation): 250 mg/kg/day
NOAEL ([20]; systemic / pathology microscopic / stomach / hyperplasia + systemic / pathology microscopic / stomach / inflammation + systemic / in life …): 125 mg/kg/day
LEL [21, 51]: 60 mg/kg/day
LOAEL [21, 51]: 60 mg/kg/day
NEL [21, 52]: 30 mg/kg/day
NOAEL [21, 52]: 30 mg/kg/day
LOAEL [22, 53]: > 1110 mg/kg/day
NEL [22, 53]: 140 mg/kg/day
NOAEL [22, 53]: ≥ 1110 mg/kg/day
LEL ([22]; systemic / pathology microscopic / stomach / hyperplasia + systemic / organ weight / stomach / nos): 278 mg/kg/day
